Laboratory results published in PMC8100298, “Histone deacetylase inhibitor resminostat in combination with sorafenib counteracts platelet-mediated pro-tumoral effects in hepatocellular carcinoma” (Scientific Reports, 2021).
Like-named read-outs stand apart in the source and are kept apart here.

How the values were obtained:
Assay in all cases: Efficacy screening assay
Format in all cases: cell-based
[1] = test system: EFO21; conditions: EFO21, ovary
Procedure: (§1) The experiment was performed by Oncolead GmbH & Co. KG (Karlsfeld , Germany), based on a standardized screening procedure . Cell lines were purchased directly from the ATCC, NCI and DSMZ cell line c ollections. Cells used for the study had undergone less than 20 passages. To ensure the absence of potential contamination and wrong assignment, all cell lines were tested using a whole genome assay (Agilent, USA). All cell lines were grown as recommended by the suppliers and with addition of 100 U/mL penicillin G and 100 µg/mL; streptomycin. Cell growth and treatments were performed in Nunclon D 96 -well plates (NUNC, Germany). The optimal seeding density for each cell line was determined to ensure exponential growth for the duration of the experiment. All cells growing without anti-cancer agents were sub-conﬂuent by the end of the treatment, as determined by visual inspection.
(§2) After an initial 24 h pre-growth period, the compounds were added. The vehicle concentration […]
(§3) was 0.1% DMSO. After incubation at 37°C for 72 h, the culture medium was aspirated, and the cells were precipitated by the addition of 10% trichloroacetic acid (Sigma-Aldrich, Missouri, US). After overnight incubation at 4°C, the plates were washed three times with deionized water. The precipitates were then stained with SRB (0.4% wt/v sulforhodamine B solution in 1% acetic acid, Sigma-Aldrich, Missouri, US). Afterwards, the plates were washed six times with 1% acetic acid to remove unbound stain. After drying the plates at room temperature, the bound SRB was solubilized with 10 mM Tris base and the optical density was measured at 520 nm using a Victor2 plate reader (Perkin Elmer, Germany). Blank OD values were subtracted from mean OD values for each concentration. The nonlinear curve ﬁtting and EC50 calculations were per formed using XLﬁt and algorithm “205” (ID Business […]
(§4) For comparison of EC50 values in Figure 1F, one-way ANOVA with multiple comparison testing (Tukey) was performed. Multiplicity adjusted p -values for the EC50 with sorafenib versus resminostat for each cell line and comparison between cell lines for sorafenib are presented (95% confidence interval for significance testing). For comparison of EC50 data in Figure 2B, one-way ANOVA with multiple comparison testing (Tukey) was performed. Multiplicity adjusted p-values with 95% confidence interval was applied. For the invasion assays in Figure 4, one-way ANOVA with multiple comparison testing (Tukey) was performed. Multiplicity adjusted p-values with 95% confidence interval was applied. The adjusted p-values comparing vehicle control without vs. with platelets and compound

[2] = test system: HCT15; conditions: HCT15, colon
Procedure: as §1, §2, §3, §4

[3] = test system: HELA; conditions: 72 h, cervix
Procedure: as §1, §2, §3, §4

[4] = test system: MT3; conditions: MT3, breast
Procedure: as §1, §2, §3, §4

[5] = test system: OVCAR3; conditions: OVCAR3, ovary
Procedure: as §1, §2, §3, §4

[6] = test system: OVCAR4; conditions: OVCAR4, ovary
Procedure: as §1, §2, §3, §4

[7] = test system: PANC1; conditions: PANC1, pancreas
Procedure: as §1, §2, §3, §4

[8] = test system: RDES; conditions: 72 h, bone
Procedure: as §1, §2, §3, §4

[9] = test system: RD; conditions: 72 h, muscle
Procedure: as §1, §2, §3, §4

[10] = test system: SAOS2; conditions: SAOS2, bone
Procedure: as §1, §2, §3, §4

[11] = test system: U2OS; conditions: 72 h, bone
Procedure: as §1, §2, §3, §4

[12] = test system: ACHN; conditions: 72 h, kidney
Procedure: In a two-step reaction, the substrate with the acetylated lysine side chain was incubated for with a sample containing HDAC activity to p roduce the deacetylated products: 1 h at 30°C for HDAC1, 2, 3 and 6; 30 min at RT for HDAC4, 5, 7 and 9; 2 h at 30°C for HDAC8, 10 and […]
(excitation) and 460 nm (emission). […]
as §1, §2, §3
For cell-based and other in vitro assays, data are presented as data mean ± SD of at least […]
For the orthotopic mouse model, data are presented as mean + SEM. For statistical analysis, one-way ANOVA and multiple comparison (Dunnett) was performed for compound treatments compared to vehicle control. The adjusted p-values with 95% confidence interval were reported as significant. For comparison of EC50 values in Figure 1F, one-way ANOVA with multiple comparison testing (Tukey) was performed. Multiplicity adjusted p -values for the EC50 with sorafenib versus resminostat for each cell line and comparison between cell lines for sorafenib are presented (95% confidence interval for significance testing). For comparison of EC50 data in Figure 2B, one-way ANOVA with multiple comparison testing (Tukey) was performed. Multiplicity adjusted p-values with 95% confidence interval was applied. For the invasion assays in Figure 4, one-way ANOVA with multiple comparison testing (Tukey) was performed. Multiplicity adjusted p-values with 95% confidence interval was applied. The adjusted p-values comparing vehicle control without vs. with platelets and compound

[13] = Homo sapiens, log of EC50, negative, read-out: log(EC50) (converted)

CN(C)Cc1ccc(S(=O)(=O)n2ccc(/C=C/C(=O)NO)c2)cc1 [resminostat, Resminostat]
EC50 ([1]; 72 h, read-out: EC50): 7.17 µM | EC50 ([1]; Homo sapiens, EFO-21, 72 h, log of EC50, negative, read-out: log(EC50) (converted)): 7.24 µM | EC50 ([1]; Homo sapiens, EFO-21, 72 h, read-out: EC50): 7.17 µM | EC50 ([2]; 72 h, read-out: EC50): 2.07 µM | EC50 ([2]; Homo sapiens, HCT-15, 72 h, log of EC50, negative, read-out: log(EC50) (converted)): 2.09 µM | EC50 ([2]; Homo sapiens, HCT-15, 72 h, read-out: EC50): 2.07 µM | EC50 ([3]; Homo sapiens, HeLa, log of EC50, negative, read-out: log(EC50) (converted)): 3.31 µM | EC50 ([3]; Homo sapiens, HeLa, read-out: EC50): 3.31 µM | EC50 ([3]; read-out: EC50): 3.32 µM | EC50 ([4]; 72 h, read-out: EC50): 1.89 µM | EC50 ([4]; MT-3, 72 h, log of EC50, negative, read-out: log(EC50) (converted)): 1.91 µM | EC50 ([4]; MT-3, 72 h, read-out: EC50): 1.89 µM | EC50 ([5]; Homo sapiens, OVCAR-3, 72 h, log of EC50, negative, read-out: log(EC50) (converted)): 3.55 µM | EC50 ([5]; Homo sapiens, OVCAR-3, 72 h, read-out: EC50): 3.55 µM | EC50 ([5]; 72 h, read-out: EC50): 3.55 µM | EC50 ([6]; Homo sapiens, OVCAR-4, 72 h, log of EC50, negative, read-out: log(EC50) (converted)): 4.07 µM | EC50 ([6]; Homo sapiens, OVCAR-4, 72 h, read-out: EC50): 4.04 µM | EC50 ([6]; 72 h, read-out: EC50): 4.04 µM | EC50 ([7]; Homo sapiens, PANC-1, 72 h, log of EC50, negative, read-out: log(EC50) (converted)): 6.76 µM | EC50 ([7]; Homo sapiens, PANC-1, 72 h, read-out: EC50): 6.79 µM | EC50 ([7]; 72 h, read-out: EC50): 6.79 µM | EC50 ([8]; RD-ES, log of EC50, negative, read-out: log(EC50) (converted)): 3.55 µM | EC50 ([8]; RD-ES, read-out: EC50): 3.57 µM | EC50 ([8]; read-out: EC50): 3.57 µM | EC50 [9, 13]: 1.55 µM | EC50 ([9]; Homo sapiens, read-out: EC50): 1.53 µM | EC50 ([9]; read-out: EC50): 1.53 µM | EC50 ([10]; Homo sapiens, SAOS-2, 72 h, log of EC50, negative, read-out: log(EC50) (converted)): 1.91 µM | EC50 ([10]; Homo sapiens, SAOS-2, 72 h, read-out: EC50): 1.89 µM | EC50 ([10]; 72 h, read-out: EC50): 1.89 µM | EC50 [11, 13]: 1.17 µM | EC50 ([11]; Homo sapiens, read-out: EC50): 1.16 µM | EC50 ([11]; read-out: EC50): 1.16 µM | EC50 [12, 13]: 1.95 µM | EC50 ([12]; Homo sapiens, read-out: EC50): 1.95 µM | EC50 ([12]; read-out: EC50): 1.95 µM
